Test [1] has as its target T1, α-glucosidase (Saccharomyces cerevisiae, UniProt P53341).
T1 construct: purchased Shanghai Yuanye Biotechnology Co., Shanghai, China Lot No. M23HS178879 (catalogue number not given)
Description: Inhibitory kinetic analysis (Lineweaver–Burk plot). The format is biochemical. The following applies: Lineweaver–Burk plots, pNPG 0.31–20 mM. Here is the method:
The type of inhibition was determined by using the kinetics curve and the Lineweaver–Burk plot. […] These compounds were incubated with α-glucosidase at 37 °C for 30 min. After incubation, various concentrations of pNPG (0.31–20 mM) were added, and absorbance was measured at 405 nm. The Lineweaver–Burk plot was obtained by plotting 1/[S] on the x-axis and 1/v on the y-axis, where [S] represents substrate concentration and v represents the reaction velocity.

The target of test [2] is T1, α-glucosidase. The test can be described thus: CD spectroscopy, secondary structure of α-glucosidase (BeStSel). The note with it: for β-turn: free enzyme 11.7; for β-sheet: free enzyme 28.8; for random coil: free enzyme 45.2; for α-helix: free enzyme 14.4. The method, then: CD spectra in the far-UV region (190–250 nm) were scanned by using a CD spectrometer (JASCO-1.5 Tokyo, Japan). […] The slit width was set to 1 nm, and the baseline was calibrated with PBS (phosphate buffered saline). CD spectra were averaged over three scans under a constant nitrogen flow, with the buffer signal subtracted. The results were analyzed using the BeStSel database (https://bestsel.elte.hu/index.php, accessed on 16 May 2025).

In test [3] the target is T1, α-glucosidase. Description: Mixture effects of flavonoid combinations on α-glucosidase. The format is biochemical. The following applies: for IC05: calculated from the dose–response curve. Here is the method: The α-glucosidase inhibitory effects of flavonoids were evaluated as in a previous report with slight modifications (including changes in the concentrations of the enzyme, substrate, and Na2CO3). Briefly, 50 μL of phosphate-buffered saline (PBS, 0.1 M, pH 6.8), the test compound, and α-glucosidase (0.2 U/mL) were preincubated in a 96-well plate at 37 °C for 10 min. The reaction was then initiated by adding 50 μL of 5 mM pNPG as the substrate. Subsequently, the 96-well plate was incubated for an additional 30 min at 37 °C, then 50 μL of 0.2 M Na2CO3 was added to terminate the reaction. Absorbance was measured at under 405 nm.
The inhibitory activity of the composition was evaluated using the same method described in Section 3.2. […] The combination index (CI, Formula (3)) was subsequently used to assess the interactions between the compounds [60].(2) Y=Bottom+Top−Bottom/1+10^^((LogIC50−X)×HillSlope)
In Formula (3), (D)j represents the concentration of component j in the mixture needed to achieve an effect of x, while (Dx)j denotes the concentration of component j required to produce the same effect when acting alone. Here, x refers to the inhibition rate produced by the composition, and n indicates the number of individual compounds in the composition.

Another test concerns normal C57BL/6J mice. Description: Oral sucrose test, postprandial blood glucose. The format is in vivo. The note with it: for Blood glucose levels: 30 min after sucrose 4 g/kg, n = 8, in mmol/L (unit assumed); for Rate of blood glucose reduction: vs model group, 30 min after sucrose. From the text: Male C57BL/6J mice of SPF grade, aged 6–8 weeks and weighing 18–22 g, were obtained from the Experimental Animal Science Department of Peking University. The mice were housed in a controlled environment with a 12:12 light/dark cycle and a constant temperature. They were provided with standard pellet feed and given free access to drinking water. To ensure acclimatization, the mice were allowed to adjust to the diet and housing conditions for one week prior to the experiment. All animal experiments were performed in compliance with the relevant laws and institutional guidelines for the care and use of laboratory animals in China. The experiments were approved by the Laboratory Animal Management and Ethics Committee of Peking University (LA2021443). Additionally, the certification number for the laboratory animal personnel is 1120111300011.
The 16 flavonoids were subsequently evaluated for their potential antihyperglycemic effects by using the oral sucrose test, which is commonly used to evaluate intestinal α-glucosidase inhibition in vivo [62]. Normal C57BL/6J mice were randomly divided into model groups and the 16 flavonoid compound groups (n = 8 per group), respectively. The flavonoids at different concentrations were suspended in 0.5% sodium carboxymethyl cellulose (CMC-Na). […] Fifteen minutes after drug administration, the mice were given a sucrose solution (4 g/kg). Blood samples were collected from the tail vein at 30 min after sucrose loading, and blood glucose levels were measured using an Accu-Chek Performa glucometer (Roche Diagnostics, SN: 79508621393, Shanghai, China). The rate of blood glucose reduction was calculated using the following Formula (4):(4) The rate of blood glucose reduction%=the model blood glucose-the sample blood glucose/the model blood glucose×100%

The mark [4] stands for this setting: molar ratio 10:1, α-glucosidase 4 μM.
[5] abbreviates: molar ratio 40:1, α-glucosidase 4 μM.
Setting [6] is: molar ratio compound:α-glucosidase 10:1, α-glucosidase 4 μM.
The mark [7] stands for this setting: 20 mg/kg oral (acarbose, positive control of each experiment).

Where “and” joins values, the source holds several entries; their conditions need not be identical. Equal values may be shown once.

T1 sequence (P53341 whole entry): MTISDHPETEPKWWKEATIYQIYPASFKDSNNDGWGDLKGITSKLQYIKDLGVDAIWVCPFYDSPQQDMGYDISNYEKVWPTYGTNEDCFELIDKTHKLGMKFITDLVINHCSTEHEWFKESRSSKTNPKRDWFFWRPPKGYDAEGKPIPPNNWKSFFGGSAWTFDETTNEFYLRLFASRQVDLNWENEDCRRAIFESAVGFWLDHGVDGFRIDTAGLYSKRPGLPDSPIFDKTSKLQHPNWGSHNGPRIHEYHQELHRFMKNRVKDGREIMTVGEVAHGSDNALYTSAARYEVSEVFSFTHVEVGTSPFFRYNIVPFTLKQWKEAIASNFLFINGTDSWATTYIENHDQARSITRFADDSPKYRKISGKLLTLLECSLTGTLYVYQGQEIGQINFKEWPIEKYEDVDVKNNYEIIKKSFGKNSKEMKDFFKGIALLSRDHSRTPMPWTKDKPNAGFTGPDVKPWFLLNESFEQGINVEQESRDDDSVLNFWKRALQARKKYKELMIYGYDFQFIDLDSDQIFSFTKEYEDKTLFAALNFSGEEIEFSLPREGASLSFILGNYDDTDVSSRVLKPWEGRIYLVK

`O=c1c(O)c(-c2ccc(O)c(O)c2)oc2cc(O)cc(O)c12` [C1, quercetin]: on α-glucosidase [1], the “type of inhibition on α-glucosidase” value is “mixed-type inhibitors”. Further, the β-turn on α-glucosidase [2] (setting [4]) is on record as 13.1%; on α-glucosidase [2] (setting [5]), 12.5%. The β-sheet on α-glucosidase [2] (setting [4]) is 23.6%; at α-glucosidase [2] (setting [5]) it was 27.9%. In addition, the random coil at α-glucosidase [2] (setting [4]) worked out at 49.1%; on α-glucosidase [2] (setting [5]) it was 48.5%. In addition, the α-helix is 11.1% at α-glucosidase [2] (setting [5]) and 14.0% on α-glucosidase [2] (setting [6]). Moreover, at α-glucosidase [3], the IC05 was 0.82 µM. Besides, the “inhibition rate against α-glucosidase” value at α-glucosidase [3] (each compound alone at its IC05 concentration, Com2 = mixture of the seven at IC05 (381.58 μM in total)) was found to be 4.70 ± 1.66%; on α-glucosidase [3] (each compound alone at its IC15 concentration, Com1 = mixture of the four at IC15 (117 μM in total)) it was 17.16 ± 0.75%. Besides, the Blood glucose levels in the test on normal C57BL/6J mice (10 mg/kg oral) worked out at 14.46 ± 1.06; in the test on normal C57BL/6J mice (50 mg/kg oral), 13.41 ± 0.41; in the test with normal C57BL/6J mice (100 mg/kg oral) it was 12.26 ± 1.65. In addition, the “Rate of blood glucose reduction” value came to 0.77% in the test with normal C57BL/6J mice (10 mg/kg oral), 7.98% in the test on normal C57BL/6J mice (50 mg/kg oral) and 15.87% in the test on normal C57BL/6J mice (100 mg/kg oral).

On to `O=c1c(O)c(-c2ccc(O)cc2)oc2cc(O)cc(O)c12` [C2, kaempferol], for which the “type of inhibition on α-glucosidase” value at α-glucosidase [1] is given as “mixed-type inhibitors”. Moreover, on α-glucosidase [2] (setting [4]), the β-turn is recorded as 12.5%, the β-sheet is recorded as 25.3% and the random coil came out at 48.2%. For the same compound, on α-glucosidase [2] (setting [5]), the β-turn is reported as 13.3%, the α-helix is reported as 9.70%, the β-sheet amounted to 23.9% and the random coil is listed as 53.1%. The α-helix at α-glucosidase [2] (setting [6]) stood at 14.1%. For the same compound, in the test on normal C57BL/6J mice (10 mg/kg oral), the Blood glucose levels was 12.68 ± 1.47 and the “Rate of blood glucose reduction” value turned out to be 9.06%. Also, in the test on normal C57BL/6J mice (50 mg/kg oral), the Blood glucose levels stood at 12.79 ± 0.81 and the “Rate of blood glucose reduction” value is 8.25%. In the test with normal C57BL/6J mice (100 mg/kg oral), the Blood glucose levels turned out to be 11.88 ± 1.62 and the “Rate of blood glucose reduction” value is on record as 14.80%.

Take `O=C1C[C@@H](c2ccc(O)cc2)Oc2cc(O)cc(O)c21` [C5, naringenin]: the “type of inhibition on α-glucosidase” value on α-glucosidase [1] is “mixed-type inhibitors”. On α-glucosidase [2] (setting [4]), the β-turn was 12.8%, the β-sheet was found to be 20.6% and the random coil came to 53.3%. At α-glucosidase [2] (setting [5]), the β-turn is on record as 13%, the α-helix is on record as 15.3%, the β-sheet came to 25.3% and the random coil amounted to 46.5%. In addition, the α-helix at α-glucosidase [2] (setting [6]) is on record as 13.2%. The IC05 on α-glucosidase [3] is 26.47 µM. In addition, in the test on normal C57BL/6J mice (5 mg/kg oral), the Blood glucose levels was determined as 14.56 ± 1.96 and the “Rate of blood glucose reduction” value is 5.67%. Also, in the test with normal C57BL/6J mice (25 mg/kg oral), the Blood glucose levels is 13.23 ± 0.63 and the “Rate of blood glucose reduction” value stood at 14.33%. In the test with normal C57BL/6J mice (100 mg/kg oral), the Blood glucose levels stood at 12.39 ± 1.03 and the “Rate of blood glucose reduction” value stood at 19.76%.

Turning to `O=c1c(O[C@@H]2O[C@H](CO)[C@@H](O)[C@H](O)[C@H]2O)c(-c2ccc(O)cc2)oc2cc(O)cc(O)c12` [C7, astragalin], the “effect on postprandial blood glucose” value in the test on normal C57BL/6J mice (30 min after the sucrose load, compared to the model group, C7 at 10, 50 or 250 mg/kg) was “no glucose-lowering effect”.

For `O=c1c(-c2ccc(O)cc2)coc2cc(O)cc(O)c12` [C8, genistein], the Blood glucose levels in the test on normal C57BL/6J mice (25 mg/kg oral) was 13.91 ± 1.00; with normal C57BL/6J mice (50 mg/kg oral), 13.26 ± 0.72; with normal C57BL/6J mice (100 mg/kg oral), 12.06 ± 0.82. In addition, the results for the “Rate of blood glucose reduction” value in the test with normal C57BL/6J mice (25 mg/kg oral), with normal C57BL/6J mice (50 mg/kg oral) and with normal C57BL/6J mice (100 mg/kg oral) were 4.55%, 9.01% and 17.24%, respectively.

For `C[C@H]1O[C@H](O[C@H]2[C@H](O)[C@@H](O)[C@@H](O[C@H]3[C@H](O)[C@@H](O)C(O)O[C@@H]3CO)O[C@@H]2CO)[C@H](O)[C@@H](O)[C@@H]1N[C@H]1C=C(CO)[C@@H](O)[C@H](O)[C@H]1O` (stereo partly shown) [acarbose, reference compound], in the test with normal C57BL/6J mice (setting [7]), the Blood glucose levels was 7.39 ± 0.70 and 7.38 ± 0.95 and 7.90 ± 0.56 and 8.09 ± 0.60 and 7.16 ± 0.52 and 7.98 ± 0.58; the “Rate of blood glucose reduction” value was 49.31% and 47.09% and 48.83% and 44.13% and 46.72% and 50.02%.
